Legend:
aspartic protease BACE1 = aspartic protease BACE1 (Homo sapiens, UniProt P56817); test: aspartic protease inhibition, BACE1; assay type: biochemical; conditions: at concentrations up to 30 μM
trypsin = target: T1, trypsin (Bos taurus, UniProt P00760); test: serine protease inhibition screen, trypsin; assay type: biochemical; conditions: at 100 μM, the highest concentration tested
T1 sequence (P00760 24-246): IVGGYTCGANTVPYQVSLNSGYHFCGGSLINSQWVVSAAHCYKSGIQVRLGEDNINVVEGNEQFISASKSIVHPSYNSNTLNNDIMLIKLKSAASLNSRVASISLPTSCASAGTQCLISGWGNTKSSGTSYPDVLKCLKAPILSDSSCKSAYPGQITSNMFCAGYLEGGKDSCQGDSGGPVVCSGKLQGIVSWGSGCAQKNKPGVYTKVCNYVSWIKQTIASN

Chain of aspartic protease BACE1 (P56817 46-501): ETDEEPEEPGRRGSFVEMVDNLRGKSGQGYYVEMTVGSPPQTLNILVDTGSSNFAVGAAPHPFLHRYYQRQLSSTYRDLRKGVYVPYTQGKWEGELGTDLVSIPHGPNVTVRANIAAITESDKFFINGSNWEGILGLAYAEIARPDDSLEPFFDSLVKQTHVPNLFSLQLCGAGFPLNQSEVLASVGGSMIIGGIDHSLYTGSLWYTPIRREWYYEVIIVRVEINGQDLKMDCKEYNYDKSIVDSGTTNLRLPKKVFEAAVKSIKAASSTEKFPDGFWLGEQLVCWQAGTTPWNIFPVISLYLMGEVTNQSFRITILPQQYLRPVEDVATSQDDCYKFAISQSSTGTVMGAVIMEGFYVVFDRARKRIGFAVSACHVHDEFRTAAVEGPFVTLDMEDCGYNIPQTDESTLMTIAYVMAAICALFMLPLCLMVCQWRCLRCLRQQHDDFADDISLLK

`C/C=C1\NC(=O)[C@@H](NC(=O)[C@@H](NC(=O)[C@H](C)NC(=O)CCC)C(C)C)[C@@H](C)OC(=O)[C@H](C(C)C)NC(=O)[C@H](Cc2ccc(O)cc2)N(C)C(=O)[C@H](Cc2ccccc2)N2C(=O)[C@H](CC[C@H]2O)NC1=O` [Compound 1, Bouillomide A] was tested, and the “inhibition of BACE1” value (aspartic protease BACE1) was “does not inhibit” and the inhibition of trypsin (trypsin) was “no inhibition”.

`C/C=C1\NC(=O)[C@@H](NC(=O)[C@@H](NC(=O)[C@H](C)NC(=O)CCC)C(C)C)[C@@H](C)OC(=O)[C@H](C(C)C)NC(=O)[C@H](Cc2ccc(O)c(Br)c2)N(C)C(=O)[C@H](Cc2ccccc2)N2C(=O)[C@H](CC[C@H]2O)NC1=O` [Compound 2, Bouillomide B] was tested, and the inhibition of trypsin (trypsin) was “no inhibition”.

Source: PMC2987581 (Tetrahedron letters, 2010)
